Reference: paper PMC6835155, “Lessons from LIMK1 enzymology and their impact on inhibitor design” (Biochemical Journal, 2019)
Structures can show the parent of a compound that is named as a salt. Where two headings read alike, the source gives them in different places.

Key:
LIMK1KD = molecular target: T1, LIMK1KD (Homo sapiens, UniProt P53667); assay: Differential (dynamic) scanning fluorimetry (DSF) assay, LIMK1KD; assay type: binding
T1 construct: His6 (N, cleaved yes); made in house; host or cells: baculovirus; Sf9 for virus, TriEx insect cells for expression

LIMK2KD = molecular target: T2, LIMK2KD (Homo sapiens, UniProt P53671); assay: Differential (dynamic) scanning fluorimetry (DSF) assay, LIMK2KD; assay type: binding
T2 construct: The cDNA coding for LIMK2 residues 330 to 632 was PCR amplified; His6 (N, cleaved yes); made in house; host or cells: baculovirus; Sf9 for virus, TriEx insect cells for expression

[1] = 2 µM LIMK1KD, compound 10 µM, single shot, read-out: TM Shift LIMK1 (K)
[2] = LIMK2KD, compound 10 µM, single shot, read-out: TM Shift LIMK2 (K)
[3] = 2 µM LIMK1KD, compound 10 µM, single shot
[4] = LIMK2KD, compound 10 µM, single shot, 10 µM
[5] = read-out: TM Shift LIMK2 (K), LIMK2KD, compound 10 µM, single shot
[6] = LIMK2KD, compound 10 µM, single shot

T2 sequence (P53671 330-632): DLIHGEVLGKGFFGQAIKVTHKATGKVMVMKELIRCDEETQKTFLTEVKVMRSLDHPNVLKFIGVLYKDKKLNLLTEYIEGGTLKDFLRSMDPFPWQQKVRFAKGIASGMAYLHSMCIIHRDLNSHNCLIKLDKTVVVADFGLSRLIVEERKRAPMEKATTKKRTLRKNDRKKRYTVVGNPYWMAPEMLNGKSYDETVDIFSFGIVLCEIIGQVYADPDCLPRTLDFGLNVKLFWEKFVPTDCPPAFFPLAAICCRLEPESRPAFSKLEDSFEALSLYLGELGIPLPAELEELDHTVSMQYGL
T1 sequence (P53667 330-637): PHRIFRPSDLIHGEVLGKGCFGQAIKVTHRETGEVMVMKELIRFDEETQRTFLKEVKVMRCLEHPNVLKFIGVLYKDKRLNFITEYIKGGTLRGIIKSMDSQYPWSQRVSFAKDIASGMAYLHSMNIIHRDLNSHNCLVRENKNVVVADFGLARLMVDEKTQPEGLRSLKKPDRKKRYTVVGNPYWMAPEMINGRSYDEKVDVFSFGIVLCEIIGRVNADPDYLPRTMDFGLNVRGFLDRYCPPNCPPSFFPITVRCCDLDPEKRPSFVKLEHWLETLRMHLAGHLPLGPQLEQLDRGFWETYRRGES

SMILES | ΔTm at 10 µM (LIMK1KD; [1]) [°C] | ΔTm at 10 µM (LIMK2KD; [2]) [°C] | further results
COCC(=O)NC/C=C/c1ccc2ncnc(Nc3ccc(Oc4ccc(C)nc4)c(C)c3)c2c1 [CP-724714] | 0.4 | -0.8 | 
C#Cc1cccc(Nc2ncnc3cc(OC)c(OCCCCCCC(=O)NO)cc23)c1 [CUDC-101] | 0.8 | 1.6 | 
COc1ccc(-c2nc(N3CCOCC3)c3sc(CN(C)c4ncc(C(=O)NO)cn4)cc3n2)cn1 [CUDC-907] | 0.3 | -0.1 | 
Cc1nc(N)sc1-c1ccnc(Nc2ccc(N3CCOCC3)cc2)n1 [CYC116] | 3.7 | 1.6 | 
N#CCNC(=O)c1ccc(-c2ccnc(Nc3ccc(N4CCOCC4)cc3)n2)cc1 [CYT387] |  |  | TM Shift LIMK1 (K) (LIMK1KD; [3]): 1.2 K; TM Shift LIMK2 (K) (LIMK2KD; [4]): 0.8 K
CC(C)(C)NS(=O)(=O)c1cncc(-c2cc(F)c3nc(N)nn3c2)c1 [CZC24832] | -0.4 | -0.1 | 
COc1cc2nccc(Oc3ccc(NC(=O)C4(C(=O)Nc5ccc(F)cc5)CC4)cc3)c2cc1OC [Cabozantinib (XL184, BMS-907351), Cabozantinib] | 2.5 | 0.6 | 
C=CC(=O)Nc1cc2c(Nc3ccc(F)c(Cl)c3)ncnc2cc1OCCCN1CCOCC1 [Canertinib (CI-1033), Canertinib] | 0.9 | 0.5 | 
COc1cc2c(Oc3ccc4[nH]c(C)cc4c3F)ncnc2cc1OCCCN1CCCC1 [Cediranib (AZD2171), Cediranib] | -0.2 | 0.5 | 
Cc1cc(O)c2c(c1)C(=O)c1cccc(O)c1C2=O [Chrysophanic Acid] | 0.9 | 1.3 | 
CC1(COc2ccc3c(c2)ncn3-c2ccc3cccc(N4CCC(N)CC4)c3n2)COC1 [Crenolanib (CP-868596), Crenolanib] | 1 | 0.5 | 
C[C@@H](Oc1cc(-c2cnn(C3CCNCC3)c2)cnc1N)c1c(Cl)ccc(F)c1Cl [Crizotinib (PF-02341066), Crizotinib] | 3.9 | 1.4 | 
COc1cc2ncnc(Nc3ccc(F)c(Cl)c3)c2cc1NC(=O)/C=C/CN1CCCCC1 [Dacomitinib (PF299804, PF299), Dacomitinib] | 0.9 | 0.2 | 
Cn1c(=O)n(-c2ccc(C(C)(C)C#N)cc2)c2c3cc(-c4cnc5ccccc5c4)ccc3ncc21 [Dactolisib] |  |  | TM Shift LIMK1 (K) (LIMK1KD; [3]): 0.3 K; TM Shift LIMK1 (K) (LIMK1KD; 2 µM LIMK1KD, compound 10 µM, single shot, listed as BEZ235 (NVP-BEZ235, Dactolisib)): -0.1 K; TM Shift LIMK2 (K) (LIMK2KD; [4]): -0.3 K; TM Shift LIMK2 (K) (LIMK2KD; LIMK2KD, compound 10 µM, single shot, listed as BEZ235 (NVP-BEZ235, Dactolisib), 10 µM): 0.1 K
CO[C@@H](C(=O)N1Cc2n[nH]c(NC(=O)c3ccc(N4CCN(C)CC4)cc3)c2C1)c1ccccc1 [Danusertib (PHA-739358), Danusertib] | 5 | 1 | 
Cc1nc(Nc2ncc(C(=O)Nc3c(C)cccc3Cl)s2)cc(N2CCN(CCO)CC2)n1 [Dasatinib] | 7 |  | ΔTm at 10 µM (LIMK2KD; [5]): 1.7 °C
CCC[C@H](NC(=O)/C(C#N)=C/c1cccc(Br)n1)c1ccccc1 [Degrasyn (WP1130), Degrasyn] |  |  | TM Shift LIMK1 (K) (LIMK1KD; [3]): -1.0 K; TM Shift LIMK2 (K) (LIMK2KD; [6]): 0.7 K
CCc1cnn2c(NCc3ccc[n+]([O-])c3)cc(N3CCCC[C@H]3CCO)nc12 [Dinaciclib (SCH727965), Dinaciclib] | -0.3 | 0.6 | 
Cc1ccc(-n2nc(C(C)(C)C)cc2NC(=O)Nc2ccc(OCCN3CCOCC3)c3ccccc23)cc1 [Doramapimod] |  | 0.9 | TM Shift LIMK1 (K) (LIMK1KD; [3]): -0.1 K; TM Shift LIMK1 (K) (LIMK1KD; 2 µM LIMK1KD, compound 10 µM, single shot, listed as BIRB 796 (Doramapimod)): 0.5 K; TM Shift LIMK2 (K) (LIMK2KD; [4]): 0.7 K
CN1CCN(c2ccc3nc(-c4c(N)c5c(F)cccc5[nH]c4=O)[nH]c3c2)CC1 [Dovitinib (TKI-258) Dilactic Acid, Dovitinib] | 2.2 | 3.8 | 
CCn1c2ccccc2c2cc(Nc3ccnc(NCCCN4CCOCC4)n3)ccc21 [EHop-016] |  |  | TM Shift LIMK1 (K) (LIMK1KD; [3]): -0.1 K; TM Shift LIMK2 (K) (LIMK2KD; [6]): -0.7 K
Cc1cc(Nc2cc(N3CCN(C)CC3)nc(/C=C/c3ccccc3)n2)n[nH]1 [ENMD-2076] | 4.6 | 6 | 

SMILES | ΔTm at 10 µM (LIMK1KD; [1]) [°C] | ΔTm at 10 µM (LIMK2KD; [2]) [°C] | further results
CC(C)(C#N)c1ccc(N2C(=O)OCc3cnc4ccc(-c5cnc6ccccc6c5)cc4c32)cc1 [ETP-46464] |  |  | TM Shift LIMK1 (K) (LIMK1KD; [3]): -0.5 K; TM Shift LIMK2 (K) (LIMK2KD; [6]): -0.5 K
Cn1cc(C2=C(c3cn(C4CCN(Cc5ccccn5)CC4)c4ccccc34)C(=O)NC2=O)c2ccccc21 [Enzastaurin (LY317615), Enzastaurin] | 1 | 1.6 | 
C#Cc1cccc(Nc2ncnc3cc(OCCOC)c(OCCOC)cc23)c1 [Erlotinib HCl (OSI-744), Erlotinib HCl] | 0.1 | 0.5 | 
CO[C@H]1C[C@@H]2CC[C@@H](C)[C@@](O)(O2)C(=O)C(=O)N2CCCC[C@H]2C(=O)O[C@H]([C@H](C)C[C@@H]2CC[C@@H](OCCO)[C@H](OC)C2)CC(=O)[C@H](C)/C=C(\C)[C@@H](O)[C@@H](OC)C(=O)[C@H](C)C[C@H](C)/C=C/C=C/C=C/1C [Everolimus (RAD001), Everolimus] | 0.1 | -0.9 | 
O=S(=O)(c1cccc2cnccc12)N1CCCNCC1 [Fasudil (HA-1077) HCl, Fasudil] | 0.8 | 0.9 | 
Cc1cnc(Nc2ccc(OCCN3CCCC3)cc2)nc1Nc1cccc(S(=O)(=O)NC(C)(C)C)c1 [Fedratinib] | 3.2 | 1.4 | 
CCCCCCCCc1ccc(CCC(N)(CO)CO)cc1 [Fingolimod (FTY720) HCl, Fingolimod] |  |  | ΔTm at 10 µM (LIMK1KD; read-out: TM Shift LIMK1 (K), 2 µM LIMK1KD, compound 10 µM, single shot): -0.7 °C; ΔTm at 10 µM (LIMK2KD; [5]): 1.1 °C
COc1cc2c(Oc3ccc(NC(=O)C4(C(=O)Nc5ccc(F)cc5)CC4)cc3F)ccnc2cc1OCCCN1CCOCC1 [Foretinib (GSK1363089), Foretinib] | 1.9 | -0.4 | 
COc1cc(Nc2ncc(F)c(Nc3ccc4c(n3)N(COP(=O)(O)O)C(=O)C(C)(C)O4)n2)cc(OC)c1OC [Fostamatinib (R788), Fostamatinib] | 1 | 0.5 | 
CC(C)NC[C@@H](C(=O)N1CCN(c2ncnc3c2[C@H](C)C[C@H]3O)CC1)c1ccc(Cl)cc1 [GDC-0068] |  |  | TM Shift LIMK1 (K) (LIMK1KD; [3]): -0.4 K; TM Shift LIMK2 (K) (LIMK2KD; [4]): -0.4 K
CCNC(=O)Nc1ccc(-c2nc3c(c(N4CCOC[C@@H]4C)n2)CCN(C2COC2)C3)cc1 [GDC-0349] | -0.5 | -1.3 | 
OCCn1cc(-c2ccc3c(c2)CC/C3=N\O)c(-c2ccncc2)n1 [GDC-0879] | -0.7 | 0 | 
CS(=O)(=O)N1CCN(Cc2cc3nc(-c4cccc5[nH]ncc45)nc(N4CCOCC4)c3s2)CC1 [GDC-0941] |  |  | TM Shift LIMK1 (K) (LIMK1KD; [3]): -0.3 K; TM Shift LIMK2 (K) (LIMK2KD; [4]): -0.4 K
Cc1c(CN2CCN(C(=O)[C@H](C)O)CC2)sc2c(N3CCOCC3)nc(-c3cnc(N)nc3)nc12 [GDC-0980 (RG7422)] |  |  | TM Shift LIMK1 (K) (LIMK1KD; [3]): 1.4 K; TM Shift LIMK2 (K) (LIMK2KD; [6]): 0.6 K
NC(=O)c1cccc(-c2cc(Nc3ccc(OC(F)(F)F)cc3)ncn2)c1 [GNF-2] |  |  | TM Shift LIMK1 (K) (LIMK1KD; [3]): -1.0 K; TM Shift LIMK2 (K) (LIMK2KD; [6]): 0.9 K
CCn1c(-c2nonc2N)nc2cnc(Oc3cccc(NC(=O)c4ccc(OCCN5CCOCC5)cc4)c3)cc21 [GSK269962] |  |  | TM Shift LIMK1 (K) (LIMK1KD; [3]): 1.0 K; TM Shift LIMK2 (K) (LIMK2KD; [6]): 0.1 K
CC1=C(C(=O)Nc2cc3cn[nH]c3cc2F)C(c2ccc(C(F)(F)F)cc2)CC(=O)N1 (centres unmarked) [GSK429286A] | 0.5 | 1.4 | 
C[C@@H](Oc1cc(-n2cnc3ccc(CN4CCN(C)CC4)cc32)sc1C(N)=O)c1ccccc1C(F)(F)F [GSK461364] | 1.1 | 0.8 | 
O=C(O)c1ccc(-c2c[nH]c3ncc(-c4ccccc4)cc23)cc1C1CCCC1 [GSK650394] | 1.4 | -0.2 | 
CCn1c(-c2nonc2N)nc2c(C#CC(C)(C)O)ncc(OC[C@H]3CCCNC3)c21 [GSK690693] | -0.1 | 0 | 
O=C1NC(=O)/C(=C/c2ccc3nccc(-c4ccncc4)c3c2)S1 [GSK1059615] | 1.2 | 2.6 | 
CCn1cc(-c2ccnc3[nH]c(-c4cccc(CN(C)C)c4)cc23)c(-c2ccc(NC(=O)N(C)C)cc2)n1 [GSK1070916] | 1.3 | -0.1 | 
